Data: patent publication US9657071B2, “IgE peptide vaccine” (NIPPON ZENYAKU KOGYO CO., LTD., priority 2012, dated 2017)

Key:
Type in all cases: in vivo
human IgE [1] = assay: Test using dog (Part 2): IgG antibody against human IgE (ELISA); conditions: healthy adult beagles 24 months old, s.c. 1 mg five times at 2-week intervals
Protocol: (§1) Human IgE (Athens Research And Technology, Inc.; IgE, human Myeloma Plasma) was prepared at 1 μg/mL in an immobilization buffer (0.05 M carbonate buffer, pH 9.6), then added at a concentration of 100 μL/well to an ELISA plate, and left overnight at 4° C. The immobilization plate was washed once with PBS-T (0.05%). A blocking solution (4× Block Ace, Snow Brand Milk Products Co., Ltd.; UK-B80) was added thereto at a concentration of 200 μL/well. The plate was blocked by incubation at 37° C. for 1.5 hours. The serum was diluted 1000-fold with a diluent (PBS-T:Block Ace=9:1) and used. The plate was reacted with the serum at 37° C. for 1.5 hours and washed three times with PBS-T (0.05%). An anti-dog IgG antibody (Sheep anti-Dog IgG HRP, Bethyl Laboratories, Inc.; A40-118P) was diluted 2000-fold with a diluent and added thereto as a secondary antibody at a concentration of 100 μL/well. After reaction at 37° C. for 1.5 hours, the plate was washed three times with PBS-T (0.05%). A substrate solution (citrate buffer supplemented with one TMBZ tablet (Sigma-Aldrich Corp.; T-3405) and further supplemented, immediately before use, with 2 μL of 30% H2O2) was added at a concentration of 100 μL/well to the plate and reacted therewith for 10 minutes. […] Then, the measurement was performed using a plate reader (Bio-Rad Laboratories, Inc.; model 680) (dual: measurement: 450 nm, control: 570 nm). […]

human IgE [2] = assay: Treatment experiment, dogs artificially sensitized with Dermatophagoides farinae: IgG antibody against human IgE (ELISA); conditions: beagles artificially sensitized with Dermatophagoides farinae, s.c. 1 mg five times
Protocol: as §1, with “(0.05%).” for “(0.05%). A substrate solution (citrate buffer supplemented with one TMBZ tablet (Sigma-Aldrich Corp.; T-3405) and further supplemented, immediately before use, with 2 μL of 30% H2O2) was added at a concentration of 100 μL/well to the plate and reacted therewith for 10 minutes.”
Evaluation: serum was collected, and an IgG antibody against human IgE was assayed by ELISA. […] The IgE antibody against Dermatophagoides farinae was evaluated by ELISA. […]

dog IgE = assay: Intravenous administration test using rats: IgG antibody against dog IgE (ELISA); conditions: i.v.
Protocol: The dog IgE protein (Bethyl Laboratories, Inc.; P115), the mouse IgE protein (BD Biosciences, San Jose, Calif., USA), and the human IgE protein (Athens Research And Technology, Inc.; 16-16-090705-ML) were each prepared at 1 μg/mL, 500 ng/mL, 250 ng/mL, 125 ng/mL, 62.5 ng/mL, 31.2 ng/mL, 15.6 ng/mL, 7.8 ng/mL, 3.9 ng/mL, 1.95 ng/mL, and 0.97 ng/mL in an immobilization buffer (0.05 M carbonate buffer, pH 9.6), then added at a concentration of 100 μL/well to an ELISA plate, and left overnight at 4° C. The immobilization plate was washed once with PBS-T (0.05%). A blocking solution (4× Block Ace, Snow Brand Milk Products Co., Ltd.; UK-B80) was added thereto at a concentration of 200 μL/well. The plate was blocked by incubation at 37° C. for 1.5 hours. The serum was diluted 2000-fold with a diluent (PBS-T:Block Ace=9:1) and used. The serum of an unimmunized rat was similarly diluted and used as a negative control. […] Then, the measurement was performed using a plate reader (Bio-Rad Laboratories, Inc.; model 680) (dual: measurement: 450 nm, control: 570 nm).
This peptide was used in the immunization of rats without the use of an adjuvant, and antibody response to dog IgE was evaluated. […]
Blood was collected every 2 weeks from the administer start date up to 8 weeks after the third immunization. Serum was collected, and an IgG antibody against dog IgE was evaluated by ELISA (FIG. 13). […]

“KKTSVSASQWYTKHHNNATT (listed as Mus musculus) [M4-7-11]” was tested, and the “level of the IgG antibody against IgE” value (human IgE [1]) was “confirmed to elevate”, the “level of the IgG antibody against IgE” value (human IgE [2]) was “confirmed to elevate” and the “anti-dog IgE IgG antibody titers in rat serum” value (dog IgE; all dose groups, final day (8 weeks after the third vaccination day)) was 3000 times. The “level of the IgG antibody against dog IgE” value (dog IgE; rat, 1 mg, 500 μg, 100 μg or 50 μg per animal three times, no adjuvant, all groups) was “a rise in the level of the IgG antibody against dog IgE was confirmed”.
